# Assay results published in article PMC4619705 (PLoS ONE, 2015).
# Several values for one entry are separate records, joined by “and”; a condition that tells them apart may be missing. Equal values may be shown once. Entries after “also recorded” stand apart in the source; their conditions may differ.
# How the values were obtained:
# β3γ2L GABAARs = molecular target: T1, β3γ2L GABAARs (Homo sapiens, UniProt P18507+P28472); assay: Two-electrode voltage clamp of β3γ2L GABAARs expressed at various β3:γ2L mRNA ratios in Xenopus oocytes; format: cell-based; details: for Expression level (current response elicited by GABA): 3 mM GABA; for Frac (95% CI), proportion of maximal response mediated by the more potent component / n H_1 (Hill slope) / n H_2 (Hill slope): biphasic fit; for n H_1 (Hill slope) / n H_2 (Hill slope): Hill slopes constrained to 1; for EC50: EC50 (95% CI) of direct activation; for EC50 / E max ± SEM (300 μM 2’MeO6MF-elicited current normalised against 3 mM GABA response) / n H ± SEM (Hill slope) of direct activation: -60 mV; for 2’MeO6MF activity: 100 μM; for Enhancement of GABA current (co-application): GABA EC3–10 + 100 or 300 μM ligand, data not shown
# T1 construct: expressed in transfected cells; host or cells: Xenopus laevis oocytes injected with β3 and γ2L mRNAs at 1:1 to 1:100
# T1 sequence (P28472 26-473): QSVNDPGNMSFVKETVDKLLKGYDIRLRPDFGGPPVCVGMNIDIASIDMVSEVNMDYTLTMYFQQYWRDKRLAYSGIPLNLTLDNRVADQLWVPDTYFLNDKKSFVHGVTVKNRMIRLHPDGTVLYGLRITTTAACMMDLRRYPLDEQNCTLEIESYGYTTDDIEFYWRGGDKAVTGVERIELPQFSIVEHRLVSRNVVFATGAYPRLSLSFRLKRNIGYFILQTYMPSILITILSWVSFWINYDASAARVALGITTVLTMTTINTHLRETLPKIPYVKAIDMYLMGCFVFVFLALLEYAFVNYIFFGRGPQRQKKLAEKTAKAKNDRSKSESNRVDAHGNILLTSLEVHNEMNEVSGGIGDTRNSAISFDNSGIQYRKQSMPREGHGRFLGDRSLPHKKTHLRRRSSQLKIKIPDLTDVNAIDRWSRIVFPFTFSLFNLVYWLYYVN
# T1 sequence (P18507 40-475): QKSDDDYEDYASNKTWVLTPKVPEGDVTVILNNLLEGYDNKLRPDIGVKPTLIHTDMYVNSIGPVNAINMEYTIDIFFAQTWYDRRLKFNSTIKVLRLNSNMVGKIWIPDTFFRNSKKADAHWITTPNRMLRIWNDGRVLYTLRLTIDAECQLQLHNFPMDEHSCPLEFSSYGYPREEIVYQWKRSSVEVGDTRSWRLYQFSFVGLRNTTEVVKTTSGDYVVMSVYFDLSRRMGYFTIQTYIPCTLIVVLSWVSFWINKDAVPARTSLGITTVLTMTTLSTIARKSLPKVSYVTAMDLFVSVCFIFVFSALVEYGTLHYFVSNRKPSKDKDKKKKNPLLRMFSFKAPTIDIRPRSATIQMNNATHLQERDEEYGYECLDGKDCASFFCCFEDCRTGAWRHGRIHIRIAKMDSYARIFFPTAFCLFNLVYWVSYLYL
# From the text: Human complementary DNA (cDNA) of GABAAR α2 subunit (vector: pCMV6-XL5) was purchased from OriGene Technologies (Rockville, MD, USA), and the human β3 (vector: pGEMHE) and γ2L (vector: pCDM8) subunits were generous gifts from Dr. Bjarke Ebert (H. Lundbeck A/S, Valby, Denmark) and Dr. Paul Whiting (Merck, Sharp and Dohme Research Laboratories, Harlow, Essex, UK) respectively. […] Plasmid vectors with the cDNA incorporated were linearised using appropriate restriction endonucleases (α2: SmaI; β3: NheI; γ2L: NotI). Capped RNA transcripts were synthesised from linearised plasmids using the mMessage mMachine T7 transcript kit from Ambion (Austin, TX, USA). Purified messenger RNA (mRNA) was dissolved in nuclease-free water (Ambion, Austin, TX, USA), and its quality was assessed using 1% agarose gel electrophoresis. The concentration of each subunit mRNA was measured using Nanodrop ND-100 UV-Vis spectrophotometer (Thermo Fisher Scientific, North Ryde, NSW, Australia).
# Various combinations of α2, β3 and γ2L subunit mRNAs were mixed to different ratios as stated in the text, and diluted accordingly to a concentration of 5 ng/μL (unless otherwise stated). […] Injected oocytes were stored in ND96 storage solution supplemented with 50 μg/mL gentamycin and tetracycline at 18°C. Two-electrode voltage clamp recordings were performed on oocytes 2–4 days post-injection at room temperature (20–25°C) using a GeneClamp 500B amplifier (ADInstruments, Sydney, NSW, Australia) or a Warner OC-725C Oocyte Clamp (Warner Instrument Corp, Hamden, CT, USA). […] The recording microelectrodes (0.2–1.1 MΩ) were generated from capillary glass (Harvard Apparatus, Holliston, MA, USA) using a single-stage glass microelectrode puller (Narishige, Tokyo, Japan), and were filled with 3 M KCl solution. The perfusion system was built using a series of polycarbonate, high-density polyethylene two-way stopcocks (Qosina, Edgewood, NY, USA), connected through tubing to the recording chamber (100 μL), where the oocyte was continuously perfused with ND96 recording solution (96 mM NaCl, 2 mM KCl, 1 mM MgCl2, 1.8 mM CaCl2, 5 mM HEPES hemisodium; pH 7.4) at an approximate rate of 5 mL/min.
# Perfusates containing these chemicals were made up fresh before each application. The concentration-response curves of agonists were obtained by exposing oocytes to increasing concentrations of agonists until the currents peaked. […] All experiments were performed using at least two different batches of oocytes.
# Prism (version 5.04; GraphPad Software, La Jolla, CA, USA) was used for data analysis.
# In all cases, we constrained the bottom to 0, and when fitting data to the biphasic model, the Hill slopes were constrained to 1. Statistical comparisons of results for different injection ratios of β3γ2L receptors were performed using ANOVA with Tukey’s post-hoc test. When comparing results from different injection ratios of β3γ2L receptors with α2β3γ2L receptors, the ANOVA Dunnett’s test was used. Pairwise comparisons were performed using Student’s t test. Statistical significance was attained at p < 0.05.
# α2β3γ2L GABAARs = molecular target: T2, α2β3γ2L GABAARs (Homo sapiens, UniProt P18507+P28472+P47869); design: method as in PMID 21797842; details: α2β3γ2L 1:1:10 injection ratio; cited from earlier work
# T2 construct: expressed in transfected cells; host or cells: Xenopus laevis oocytes injected with capped mRNA, α2:β3:γ2L 3:1:3
# T2 sequence (P47869 29-451): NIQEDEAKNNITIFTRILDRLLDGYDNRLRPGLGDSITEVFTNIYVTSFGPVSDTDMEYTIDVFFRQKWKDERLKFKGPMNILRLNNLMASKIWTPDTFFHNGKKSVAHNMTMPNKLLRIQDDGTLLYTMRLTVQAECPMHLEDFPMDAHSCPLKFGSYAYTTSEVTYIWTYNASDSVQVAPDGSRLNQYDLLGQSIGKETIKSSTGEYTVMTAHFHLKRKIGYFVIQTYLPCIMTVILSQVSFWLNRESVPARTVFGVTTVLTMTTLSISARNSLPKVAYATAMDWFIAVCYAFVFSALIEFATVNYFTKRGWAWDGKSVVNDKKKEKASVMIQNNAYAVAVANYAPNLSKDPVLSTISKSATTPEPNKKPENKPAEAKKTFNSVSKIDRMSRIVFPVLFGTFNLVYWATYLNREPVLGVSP
# T2 sequence (P28472 26-473): as the sequence (P28472 26-473) above
# T2 sequence (P18507 40-475): as the sequence (P18507 40-475) above
smiles,measurement,setting,value
"NCCCC(=O)O [GABA, γ-aminobutyric acid]",Expression level (current response elicited by GABA),β3γ2L GABAARs; β3γ2L 1:1,110 ± 34 nA
same,Expression level (current response elicited by GABA),β3γ2L GABAARs; β3γ2L 1:5,270 ± 80 nA
same,Expression level (current response elicited by GABA),β3γ2L GABAARs; β3γ2L 1:10,310 ± 61 nA
same,I max ± SEM (current amplitude elicited by 30 mM GABA),β3γ2L GABAARs; β3γ2L 1:15,780 ± 220 nA
same,Expression level (current response elicited by GABA),β3γ2L GABAARs; β3γ2L 1:15,490 ± 47 nA
same,n H_1 ± SEM (Hill slope),"β3γ2L GABAARs; β3γ2L 1:15, monophasic fit",0.54 and 0.54 ± 0.040
same,Expression level (current response elicited by GABA),β3γ2L GABAARs; β3γ2L 1:20,860 ± 87 nA
same,I max ± SEM (current amplitude elicited by 30 mM GABA),β3γ2L GABAARs; β3γ2L 1:50,1000 ± 250 nA
same,Expression level (current response elicited by GABA),β3γ2L GABAARs; β3γ2L 1:50,1000 ± 160 nA
same,"Frac (95% CI), proportion of maximal response mediated by the more potent component",β3γ2L GABAARs; β3γ2L 1:50,0.74 (0.67–0.80)
same,n H_1 (Hill slope),β3γ2L GABAARs; β3γ2L 1:50,1.0
same,n H_2 (Hill slope),β3γ2L GABAARs; β3γ2L 1:50,1.0
same,I max ± SEM (current amplitude elicited by 30 mM GABA),β3γ2L GABAARs; β3γ2L 1:100,1000 ± 97 nA
same,Expression level (current response elicited by GABA),β3γ2L GABAARs; β3γ2L 1:100,1100 ± 100 nA
same,"Frac (95% CI), proportion of maximal response mediated by the more potent component",β3γ2L GABAARs; β3γ2L 1:100,0.71 (0.65–0.77)
same,n H_1 (Hill slope),β3γ2L GABAARs; β3γ2L 1:100,1.0
same,n H_2 (Hill slope),β3γ2L GABAARs; β3γ2L 1:100,1.0
"COc1ccccc1-c1cc(=O)c2cc(C)ccc2o1 [2’MeO6MF, 2’-methoxy-6-methylflavone]",EC50,β3γ2L GABAARs; β3γ2L 1:15,45 µM
same,EC50,β3γ2L GABAARs; β3γ2L 1:50,62 µM
same,EC50,β3γ2L GABAARs; β3γ2L 1:100,63 µM
same,2’MeO6MF activity,β3γ2L GABAARs; β3γ2L 1:1,inhibited the constitutive activity; also recorded: inverse agonist; also recorded: Inverse agonism
same,2’MeO6MF activity,β3γ2L GABAARs; β3γ2L 1:5,mixed agonist and inverse agonist activity; also recorded: mixed inverse agonist and agonist effect; also recorded: Inverse agonism/activation
same,2’MeO6MF activity,β3γ2L GABAARs; β3γ2L 1:10,mixed agonist and inverse agonist activity; also recorded: mixed inverse agonist and agonist effect; also recorded: Inverse agonism/activation
same,2’MeO6MF activity,β3γ2L GABAARs; β3γ2L 1:15,directly activated receptors expressed efficaciously; also recorded: Activation
same,"Elicited current, % of the 3 mM GABA responses (mean ± SEM)","β3γ2L GABAARs; β3γ2L 1:15, 100 μM ligand",87 ± 4.5%
same,E max ± SEM (300 μM 2’MeO6MF-elicited current normalised against 3 mM GABA response),β3γ2L GABAARs; β3γ2L 1:15,1.2 ± 0.10
same,n H ± SEM (Hill slope) of direct activation,β3γ2L GABAARs; β3γ2L 1:15,1.8 ± 0.42
same,Enhancement of GABA current (co-application),β3γ2L GABAARs; β3γ2L 1:15,No enhancement
same,2’MeO6MF activity,β3γ2L GABAARs; β3γ2L 1:20,variable efficacy; also recorded: Activation
same,"Elicited current, % of the 3 mM GABA responses (mean ± SEM)","β3γ2L GABAARs; β3γ2L 1:20, 100 μM ligand",approximately 34 ± 4.0%
same,"Relative efficacy, range across oocytes, % of the 3 mM GABA responses","β3γ2L GABAARs; β3γ2L 1:20, 100 μM ligand",1.0 to 120%
same,2’MeO6MF activity,β3γ2L GABAARs; β3γ2L 1:50,activation with low efficacy
same,"Elicited current, % of the 3 mM GABA responses (mean ± SEM)","β3γ2L GABAARs; β3γ2L 1:50, 100 μM ligand",around 6.7 ± 1.2%
same,E max ± SEM (300 μM 2’MeO6MF-elicited current normalised against 3 mM GABA response),β3γ2L GABAARs; β3γ2L 1:50,0.086 ± 0.018
same,n H ± SEM (Hill slope) of direct activation,β3γ2L GABAARs; β3γ2L 1:50,1.4 ± 0.88
same,2’MeO6MF activity,β3γ2L GABAARs; β3γ2L 1:100,activation with low efficacy
same,"Elicited current, % of the 3 mM GABA responses (mean ± SEM)","β3γ2L GABAARs; β3γ2L 1:100, 100 μM ligand",~5.1 ± 0.72%
same,E max ± SEM (300 μM 2’MeO6MF-elicited current normalised against 3 mM GABA response),β3γ2L GABAARs; β3γ2L 1:100,0.10 ± 0.020
same,n H ± SEM (Hill slope) of direct activation,β3γ2L GABAARs; β3γ2L 1:100,1.6 ± 0.76
same,Enhancement of GABA current (co-application),β3γ2L GABAARs; β3γ2L 1:100,No enhancement
same,Agonist efficacy (direct activation),α2β3γ2L GABAARs,full agonist
